Source: patent publication US10219516B2, “Molecules having pesticidal utility, and intermediates, compositions, and processes, related thereto” (priority 2015, dated 2019)
Like-named read-outs stand apart in the source and are kept apart here.

How the values were obtained:
Type in all cases: in vivo
[1] = test system: Beet Armyworm (Spodoptera exigua, LAPHEG); assay: Bioassay on Beet Armyworm (BAW), 128-well diet tray assay
Outline: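 Second instar larvae were exposed to diet treated at 50 μg/cm^2 for five to seven days at 25° C.; mortality was averaged over eight wells.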

[2] = test system: Cabbage Looper (Trichoplusia ni, TRIPNI); assay: Bioassay on Cabbage Looper (CL), 128-well diet tray assay; conditions: Trichoplusia ni
Outline: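 Second-instar larvae, one to five per well, were placed on artificial diet surface-treated with 50 μg/cm^2 test molecule applied in 90:10 acetone-water and dried, eight wells per molecule. Trays were covered, vented and held at 25° C., 14:10 light-dark for five to seven days; percent mortality per well was averaged.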

[3] = test system: Yellow Fever Mosquito (Aedes aegypti, AEDSAE); assay: Bioassay on Yellow Fever Mosquito (YFM), 96-well plate larval assay; conditions: for YFM rating: Yellow Fever Mosquito, 96-well plate larval assay; for YFM (Biological Results, rating): Species YFM (Yellow Fever Mosquito)
Outline: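 Each well was scored for mortality after 3 days at room temperature under a non-evaporative lid. Test molecules came from DMSO masters (4000 ppm stock) diluted with water/acetone 90:10 and dispensed into six replicate plates, which were then infested with roughly 1-day-old larvae in liver-powder water.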

[4] = Beet Armyworm, 128-well diet tray assay, read-out: BAW rating
[5] = Cabbage Looper, 128-well diet tray assay, read-out: CL rating
[6] = Species BAW (Beet Armyworm), read-out: BAW (Biological Results, rating)
[7] = Species CL (Cabbage Looper), read-out: CL (Biological Results, rating)

| Structure (SMILES) | pest or weed control at 50 µg/cm2 [1, 4] [%] | pest or weed control at 50 µg/cm2 [2, 5] [%] | YFM rating [3] | pest or weed control at 50 µg/cm2 [1, 6] [%] | pest or weed control at 50 µg/cm2 [2, 7] [%] | YFM (Biological Results, rating) [3] |
| --- | --- | --- | --- | --- | --- | --- |
| COc1ccc(NC(=O)c2cc(NC(=O)[C@H]3[C@H](c4ccc(F)c(Cl)c4)C3(Cl)Cl)ccc2Cl)c(Cl)n1 (relative stereo) [F553, 2-Chloro-N-(2-chloro-6-methoxypyridin-3-yl)-5-(trans-2,2-dichloro-3-(3-chloro-4-fluorophenyl)cyclopropane-1-carboxamido)benzamide] | 50 to 100 | 50 to 100 | A (80-100) |  |  |  |
| N#Cc1cc(N)ccc1NC(=O)c1cc(NC(=O)[C@H]2[C@H](c3cc(Cl)cc(Cl)c3)C2(Cl)Cl)ccc1Cl (relative stereo) [F236, trans-N-(4-amino-2-cyanophenyl)-2-chloro-5-(2,2-dichloro-3-(3,5-dichlorophenyl)cyclopropane-1-carboxamido)benzamide] |  |  |  | 50 to 100 | 50 to 100 | A (80-100) |
| CNc1cc(NC(=O)c2cc(NC(=O)[C@H]3[C@H](c4cc(Cl)cc(Cl)c4)C3(Cl)Cl)ccc2Cl)ccc1OC (relative stereo) [F200, trans-2-Chloro-5-(2,2-dichloro-3-(3,5-dichlorophenyl)cyclopropane-1-carboxamido)-N-(4-methoxy-3-(methylamino)phenyl)benzamide] |  |  |  | 50 to 100 | 50 to 100 | B (More than 0-Less than 80) |
| O=C(Nc1c(F)cccc1F)c1cc(NC(=O)[C@H]2[C@H](c3cccc(C(F)(F)F)c3)C2(Cl)Cl)ccc1Cl (relative stereo) [F58, trans-2-Chloro-5-(2,2-dichloro-3-(3-(trifluoromethyl)phenyl)cyclopropane-1-carboxamido)-N-(2,6-difluorophenyl)benzamide] |  |  |  | 50 to 100 | 50 to 100 | A (80-100) |
| O=C(Nc1ccc(Br)c(F)n1)c1cc(NC(=O)[C@H]2[C@H](c3cc(Cl)cc(Cl)c3)C2(Cl)Cl)ccc1Cl (relative stereo) [F357, N-(5-Bromo-6-fluoropyridin-2-yl)-2-chloro-5-(trans-2,2-dichloro-3-(3,5-dichlorophenyl)cyclopropane-1-carboxamido)benzamide] |  |  |  | 50 to 100 | 50 to 100 | A (80-100) |
| O=C(Nc1ccc(F)cc1F)c1cc(NC(=O)[C@H]2[C@H](c3ccc(F)c(C(F)(F)F)c3)C2(Cl)Cl)ccc1Cl (relative stereo) [F376, 2-Chloro-5-(trans)-(2,2-dichloro-3-(4-fluoro-3-(trifluoromethyl)phenyl)cyclopropane-1-carboxamido)-N-(2,4-difluorophenyl)benzamide] | 50 to 100 | 50 to 100 | A (80-100) |  |  |  |
| C=Cc1ccc([C@H]2[C@H](C(=O)Nc3ccc(Cl)c(C(=O)N(C)c4ccc(F)cc4)c3)C2(Cl)Cl)cc1Cl (relative stereo) [F329, 2-Chloro-5-(trans-2,2-dichloro-3-(3-chloro-4-vinylphenyl)cyclopropane-1-carboxamido)-N-(4-fluorophenyl)-N-methylbenzamide] |  |  |  | 50 to 100 | 50 to 100 | A (80-100) |
| O=C(Nc1ccc(F)cc1F)c1cc(NC(=O)[C@H]2[C@H](c3cc(Br)cc(C(F)(F)F)c3)C2(Cl)Cl)ccc1Cl (relative stereo) [F424, 5-(trans)-(3-(3-Bromo-5-(trifluoromethyl)phenyl)-2,2-dichlorocyclopropane-1-carboxamido)-2-chloro-N-(2,4-difluorophenyl)benzamide] | 50 to 100 | 50 to 100 | A (80-100) |  |  |  |
| Nc1cccc(NC(=O)c2cc(NC(=O)[C@H]3[C@H](c4cc(Cl)cc(Cl)c4)C3(Cl)Cl)ccc2Cl)n1 (relative stereo) [F326, trans-N-(6-aminopyridin-2-yl)-2-chloro-5-(2,2-dichloro-3-(3,5-dichlorophenyl)cyclopropane-1-carboxamido)benzamide] |  |  |  | 50 to 100 | 50 to 100 | A (80-100) |
| COc1cc(NC(=O)c2cc(NC(=O)[C@H]3[C@H](c4cc(Cl)cc(Cl)c4)C3(Cl)Cl)ccc2Cl)c(Br)cn1 (relative stereo) [F548, N-(5-Bromo-2-methoxypyridin-4-yl)-2-chloro-5-(trans-2,2-dichloro-3-(3,5-dichlorophenyl)cyclopropane-1-carboxamido)benzamide] | 50 to 100 | 50 to 100 | A (80-100) |  |  |  |
| N#Cc1cc(F)ccc1NC(=O)c1cc(NC(=O)[C@H]2[C@H](c3ccc(Br)c(Cl)c3)C2(Cl)Cl)ccc1Cl (relative stereo) [F320, 5-(trans-3-(4-Bromo-3-chlorophenyl)-2,2-dichlorocyclopropane-1-carboxamido)-2-chloro-N-(2-cyano-4-fluorophenyl)benzamide] |  |  |  | 50 to 100 | 50 to 100 | A (80-100) |
| Cc1cc(NC(=O)OC(C)(C)C)ccc1NC(=O)c1cc(NC(=O)[C@H]2[C@H](c3ccc(Br)c(Cl)c3)C2(Cl)Cl)ccc1Cl (relative stereo) [F322, tert-Butyl (4-(5-(trans-3-(4-bromo-3-chlorophenyl)-2,2-dichlorocyclopropane-1-carboxamido)-2-chlorobenzamido)-3-methylphenyl)carbamate] |  |  |  | 50 to 100 | 50 to 100 | A (80-100) |
| CN1CCCc2cc(NC(=O)c3cc(NC(=O)[C@H]4[C@H](c5cc(Cl)cc(Cl)c5)C4(Cl)Cl)ccc3Cl)ccc21 (relative stereo) [F491, 2-Chloro-5-(trans)-(2,2-dichloro-3-(3,5-dichlorophenyl)cyclopropane-1-carboxamido)-N-(1-methyl-1,2,3,4-tetrahydroquinolin-6-yl)benzamide] | 50 to 100 | 50 to 100 | A (80-100) |  |  |  |
| Cc1cc(N)ccc1NC(=O)c1cccc(NC(=O)[C@H]2[C@H](c3ccc(Cl)c(Cl)c3)C2(Cl)Cl)c1 (relative stereo) [F265, trans-N-(4-Amino-2-methylphenyl)-3-(2,2-dichloro-3-(3,4-dichlorophenyl)cyclopropane-1-carboxamido)benzamide] |  |  |  | 50 to 100 | 50 to 100 | A (80-100) |
| Cc1c(F)ccc(NC(=O)c2cc(NC(=O)[C@H]3[C@H](c4cc(Cl)cc(Cl)c4)C3(Cl)Cl)ccc2Cl)c1C (relative stereo) [PF54, trans-2-Chloro-5-(2,2-dichloro-3-(3,5-dichlorophenyl)cyclopropane-1-carboxamido)-N-(4-fluoro-2,3-dimethylphenyl)benzamide] | 50 to 100 | 50 to 100 | A (80-100) |  |  |  |
| O=C(Nc1ccc(Br)c(F)c1)c1cc(NC(=O)C2C(c3cc(Cl)cc(Cl)c3)C2(Cl)Cl)ccc1Cl (stereo not drawn) [PF115, N-(4-Bromo-3-fluorophenyl)-2-chloro-5-(trans)-2,2-dichloro-3-(3,5-dichlorophenyl)cyclopropane-1-carboxamido)benzamide] | 50 to 100 | 50 to 100 | A (80-100) |  |  |  |
| CN(C(=O)c1cc(NC(=O)[C@H]2[C@H](c3cc(Cl)cc(Cl)c3)C2(Cl)Cl)ccc1Cl)c1ccc(F)cc1 [F169, 2-Chloro-5-((1R,3R)-2,2-dichloro-3-(3,5-dichlorophenyl)cyclopropane-1-carboxamido)-N-(4-fluorophenyl)-N-methylbenzamide] |  |  |  | 50 to 100 | 50 to 100 | A (80-100) |
| O=C(Nc1ccc(Cl)cn1)c1cc(NC(=O)[C@H]2[C@H](c3cc(Cl)cc(Cl)c3)C2(Cl)Cl)ccc1Cl (relative stereo) [PF141, trans-2-Chloro-N-(5-chloropyridin-2-yl)-5-(2,2-dichloro-3-(3,5-dichlorophenyl)cyclopropane-1-carboxamido)benzamide] | 50 to 100 | 50 to 100 | B (More than 0-Less than 80) |  |  |  |
| CC(C)(C)OC(=O)Nc1cccc(NC(=O)c2cc(NC(=O)[C@H]3[C@H](c4ccc(F)c(Cl)c4)C3(Cl)Cl)ccc2Cl)n1 (relative stereo) [F506, tert-Butyl (6-(2-chloro-5-(trans-2,2-dichloro-3-(3-chloro-4-fluorophenyl)cyclopropane-1-carboxamido)benzamido)pyridin-2-yl)carbamate] | 50 to 100 | 50 to 100 | A (80-100) |  |  |  |
| O=C(Nc1ccc(F)cc1[N+](=O)[O-])c1cc(NC(=O)[C@H]2[C@H](c3cc(Cl)cc(Cl)c3)C2(Cl)Cl)ccc1Cl [F554, 2-Chloro-5-((1R,3R)-2,2-dichloro-3-(3,5-dichlorophenyl)cyclopropane-1-carboxamido)-N-(4-fluoro-2-nitrophenyl)benzamide] | 50 to 100 | 50 to 100 | A (80-100) |  |  |  |
| Cc1cc(/N=C/c2ccc(Cl)cc2)ccc1NC(=O)c1cc(NC(=O)C2C(c3cc(Cl)cc(Cl)c3)C2(Cl)Cl)ccc1Cl (stereo not drawn) [F510] | 50 to 100 | 50 to 100 | A (80-100) |  |  |  |
